# Data as given in PMC8566587, “Selection for constrained peptides that bind to a single target protein” (Nature Communications, 2021).
# Where a SMILES comes first, the peptide text is derived from it.
# Experiments:
# [1] = molecular target: SARS-CoV-2 Spike RBD (RBD296-531) (Severe acute respiratory syndrome coronavirus 2, UniProt P0DTC2); experiment: biochemical; assay type: binding
# [2] = cited from earlier work
# Excerpt: The genetic circuit is based on a split intein and σ factor to which the peptide library is fused. This could be used to screen/select libraries of linear peptides or protein domains for binding to the target. Here, we decided to use modified peptides because they have advantages as pharmaceuticals, including more compact structures that are resistant to proteolysis and permeate the mammalian cell membrane. Modified peptides have been approved for the treatment of cancer, inflammation, and infection and increasing numbers are entering all phases of clinical development for diverse indicatio ...
# Spike RBD = assay type: cell-based, SARS-CoV-2
compound,measurement,setting,value
"CC[C@H](C)[C@H](NC(=O)[C@H]1NC(=O)[C@H](C(C)C)NC(=O)[C@H]([C@@H](C)CC)NC(=O)[C@H](CCC(=O)O)NC(=O)[C@@H](NC(=O)[C@H](Cc2c[nH]c3ccccc23)NC(=O)[C@H](CCC(=O)O)NC(=O)CNC(=O)[C@H](Cc2ccc(O)cc2)NC(=O)[C@H](CCCCN)NC(=O)[C@H](CS)NC(=O)[C@@H](NC(=O)CN)C(C)C)CSC1CC(=O)O)C(=O)O (stereo partly shown) [AMK-1057] (HELM PEPTIDE1{G.V.C.K.Y.G.E.W.C.E.I.V.[O=C(O)CC([C@H](N[*:1])C(=O)[*:2])[*:3]].I}$PEPTIDE1,PEPTIDE1,9:R3-13:R3$$$V2.0)",Kd,[1],990 ± 5 nM
Enfuvirtide,proteolysis (in words),[2],suffers from rapid proteolysis
VCKYGEWCEIVEI [Pap2c_1],fluorescence output (in words),Spike RBD,strong fluorescence output
same,specificity for Spike RBD as compared to Mdm2*,Spike RBD,14 fold
